In patent publication US20230203059A1, “MACROCYCLIC JAK INHIBITOR AND USES THEREOF” (Biopolar Hongye (Guangdong) Pharmaceutical Co. Ltd., priority 2020, published 2023) one finds IC50 data, which are given here for 17 molecules.

What all share (format): biochemical
In one experiment the target is JAK1 (Homo sapiens, UniProt P23458). Briefly: JAK kinase activity, homogeneous time-resolved fluorescence (JAK1 reaction system). The conditions noted are these: ATP 2 μM, JAK1 protein 0.2 ng/μL; read-out: JAK 1 activity. The gist of the method: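 Kinase activity read as the 665 nm/615 nm time-resolved fluorescence ratio (320 nm excitation) after EDTA-containing antibody and XL-615 addition. Reaction ran 1 h at pH 7.0 (Hepes, MgCl2, DTT) with 0.2 ng/μL JAK1 and ATP at 2 μM. IC50 derived by Hill-slope fit.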
JAK1, sequence (P23458 whole entry): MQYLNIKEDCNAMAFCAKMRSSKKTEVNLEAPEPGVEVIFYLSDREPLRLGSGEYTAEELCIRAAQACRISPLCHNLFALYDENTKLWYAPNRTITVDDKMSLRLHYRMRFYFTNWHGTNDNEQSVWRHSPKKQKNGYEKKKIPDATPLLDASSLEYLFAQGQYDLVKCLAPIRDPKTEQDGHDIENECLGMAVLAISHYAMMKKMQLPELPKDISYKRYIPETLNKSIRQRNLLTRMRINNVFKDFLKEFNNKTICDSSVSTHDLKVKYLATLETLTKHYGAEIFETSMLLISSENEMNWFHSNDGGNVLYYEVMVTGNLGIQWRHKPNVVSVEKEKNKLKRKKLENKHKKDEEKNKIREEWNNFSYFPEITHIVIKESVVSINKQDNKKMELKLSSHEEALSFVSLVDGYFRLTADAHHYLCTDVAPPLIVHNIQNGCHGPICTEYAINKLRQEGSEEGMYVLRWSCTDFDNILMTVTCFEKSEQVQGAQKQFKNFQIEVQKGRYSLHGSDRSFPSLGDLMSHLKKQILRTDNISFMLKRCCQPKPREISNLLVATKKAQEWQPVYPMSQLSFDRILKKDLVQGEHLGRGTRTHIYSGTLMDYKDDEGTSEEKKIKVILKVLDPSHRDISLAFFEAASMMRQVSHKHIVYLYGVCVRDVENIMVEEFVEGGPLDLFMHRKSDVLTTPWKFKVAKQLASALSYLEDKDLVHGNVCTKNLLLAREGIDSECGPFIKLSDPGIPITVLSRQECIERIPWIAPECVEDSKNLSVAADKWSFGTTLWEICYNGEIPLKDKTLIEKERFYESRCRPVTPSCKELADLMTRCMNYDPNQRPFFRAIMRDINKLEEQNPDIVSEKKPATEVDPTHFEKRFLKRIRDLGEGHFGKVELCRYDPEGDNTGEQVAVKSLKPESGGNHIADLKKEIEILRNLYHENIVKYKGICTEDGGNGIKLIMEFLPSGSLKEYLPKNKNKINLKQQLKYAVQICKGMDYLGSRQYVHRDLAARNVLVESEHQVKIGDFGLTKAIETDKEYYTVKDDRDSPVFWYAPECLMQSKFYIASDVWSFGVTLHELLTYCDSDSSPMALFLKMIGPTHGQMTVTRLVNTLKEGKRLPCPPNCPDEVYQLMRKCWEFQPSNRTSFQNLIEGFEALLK

Another experiment deals with T1, JAK3 (Homo sapiens, UniProt P52333).
T1 sequence (P52333 1-1124): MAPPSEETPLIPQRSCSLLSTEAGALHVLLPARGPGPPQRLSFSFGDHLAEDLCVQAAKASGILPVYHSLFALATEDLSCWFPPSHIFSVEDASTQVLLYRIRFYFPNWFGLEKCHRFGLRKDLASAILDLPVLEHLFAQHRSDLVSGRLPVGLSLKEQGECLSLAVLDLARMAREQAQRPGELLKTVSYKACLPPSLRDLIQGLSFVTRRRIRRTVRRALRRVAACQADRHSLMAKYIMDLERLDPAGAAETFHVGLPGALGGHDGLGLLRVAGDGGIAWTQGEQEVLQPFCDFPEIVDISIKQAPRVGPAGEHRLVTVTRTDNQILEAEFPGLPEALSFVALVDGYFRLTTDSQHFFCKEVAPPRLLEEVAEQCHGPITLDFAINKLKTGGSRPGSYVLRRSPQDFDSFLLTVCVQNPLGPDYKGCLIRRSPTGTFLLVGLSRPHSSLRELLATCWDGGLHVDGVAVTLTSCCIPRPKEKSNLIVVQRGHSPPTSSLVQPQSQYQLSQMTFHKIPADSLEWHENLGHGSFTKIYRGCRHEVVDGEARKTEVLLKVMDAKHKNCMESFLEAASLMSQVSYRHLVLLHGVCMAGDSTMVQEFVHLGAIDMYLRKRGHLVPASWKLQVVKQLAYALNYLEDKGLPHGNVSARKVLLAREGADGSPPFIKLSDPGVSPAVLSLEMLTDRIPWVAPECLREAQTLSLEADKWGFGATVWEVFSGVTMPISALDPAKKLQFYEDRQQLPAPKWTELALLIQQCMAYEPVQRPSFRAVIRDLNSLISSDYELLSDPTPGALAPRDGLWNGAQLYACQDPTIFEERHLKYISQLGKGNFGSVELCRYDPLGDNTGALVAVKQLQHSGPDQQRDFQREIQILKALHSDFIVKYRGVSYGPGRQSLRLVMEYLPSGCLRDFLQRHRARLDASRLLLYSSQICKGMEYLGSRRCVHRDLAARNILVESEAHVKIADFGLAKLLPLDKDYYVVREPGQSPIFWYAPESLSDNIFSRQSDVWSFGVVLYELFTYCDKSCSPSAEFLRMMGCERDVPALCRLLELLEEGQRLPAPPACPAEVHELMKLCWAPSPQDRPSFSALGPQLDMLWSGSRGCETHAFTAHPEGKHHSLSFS
Briefly: JAK kinase activity, homogeneous time-resolved fluorescence (JAK3 reaction system). The settings on record: ATP 2 μM, JAK3 protein 0.04 ng/μL; read-out: JAK 3 activity.

For a further experiment, the target named is TYK2 (Homo sapiens, UniProt P29597). Kind of experiment: JAK kinase activity, homogeneous time-resolved fluorescence (TYK2 reaction system). The settings on record: ATP 2 μM, TYK2 protein 0.2 ng/μL; read-out: TYK 2 activity. The procedure, abridged: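 Activity read as the 665 nm/615 nm ratio after adding EDTA-containing detection mix with anti-phospho-substrate antibody and XL-615. Beforehand, 0.2 ng/μL TYK2, 2 μM ATP, substrate and compound reacted 1 h in pH 7.0 Hepes buffer with MgCl2 and DTT. IC50 fitted with Hill-slope equation.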
TYK2, sequence (P29597 whole entry): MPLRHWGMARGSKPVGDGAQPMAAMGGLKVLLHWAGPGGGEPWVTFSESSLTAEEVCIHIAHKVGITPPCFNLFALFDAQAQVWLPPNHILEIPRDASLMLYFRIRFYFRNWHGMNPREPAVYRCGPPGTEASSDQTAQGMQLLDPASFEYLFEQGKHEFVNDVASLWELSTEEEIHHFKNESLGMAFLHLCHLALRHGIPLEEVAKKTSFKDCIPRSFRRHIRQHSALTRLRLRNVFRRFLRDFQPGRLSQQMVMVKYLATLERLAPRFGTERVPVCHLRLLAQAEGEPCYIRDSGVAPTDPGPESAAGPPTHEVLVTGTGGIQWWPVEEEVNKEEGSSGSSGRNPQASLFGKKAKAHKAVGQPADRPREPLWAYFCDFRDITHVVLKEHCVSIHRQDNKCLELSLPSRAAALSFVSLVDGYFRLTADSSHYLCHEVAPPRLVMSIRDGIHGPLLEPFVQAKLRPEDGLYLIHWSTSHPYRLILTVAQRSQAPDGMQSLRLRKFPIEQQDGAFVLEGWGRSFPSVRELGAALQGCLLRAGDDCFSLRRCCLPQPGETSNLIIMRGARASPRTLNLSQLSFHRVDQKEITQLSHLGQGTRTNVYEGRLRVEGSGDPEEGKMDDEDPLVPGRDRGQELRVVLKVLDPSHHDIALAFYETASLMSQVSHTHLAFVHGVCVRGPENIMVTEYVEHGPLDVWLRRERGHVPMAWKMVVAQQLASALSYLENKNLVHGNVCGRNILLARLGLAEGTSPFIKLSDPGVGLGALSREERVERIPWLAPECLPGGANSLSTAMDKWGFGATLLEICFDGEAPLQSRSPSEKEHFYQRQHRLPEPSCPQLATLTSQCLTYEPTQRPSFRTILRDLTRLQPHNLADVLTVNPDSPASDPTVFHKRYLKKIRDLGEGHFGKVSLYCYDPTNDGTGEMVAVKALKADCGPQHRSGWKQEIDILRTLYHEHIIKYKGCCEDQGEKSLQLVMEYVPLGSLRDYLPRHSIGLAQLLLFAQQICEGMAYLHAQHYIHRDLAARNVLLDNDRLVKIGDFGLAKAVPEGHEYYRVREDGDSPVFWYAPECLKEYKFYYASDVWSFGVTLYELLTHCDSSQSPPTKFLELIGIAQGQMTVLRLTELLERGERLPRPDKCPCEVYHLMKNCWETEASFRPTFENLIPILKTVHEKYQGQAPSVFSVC

The target in a further experiment is JAK2 (Homo sapiens, UniProt O60674). Briefly: JAK kinase activity, homogeneous time-resolved fluorescence (JAK2 reaction system). The conditions noted are these: ATP 2 μM, JAK2 protein 0.01 ng/μL. The procedure, abridged: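 IC50 derived by Hill-equation fit of the 665/615 nm time-resolved fluorescence ratio after EDTA-containing detection mix with anti-phosphosubstrate antibody. Preceding 1 h reaction contained 2 μM ATP, 0.01 ng/μL JAK2, substrate, 50 mM Hepes pH 7.0, 5 mM MgCl2, 1 mM DTT.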
JAK2, sequence (O60674 whole entry): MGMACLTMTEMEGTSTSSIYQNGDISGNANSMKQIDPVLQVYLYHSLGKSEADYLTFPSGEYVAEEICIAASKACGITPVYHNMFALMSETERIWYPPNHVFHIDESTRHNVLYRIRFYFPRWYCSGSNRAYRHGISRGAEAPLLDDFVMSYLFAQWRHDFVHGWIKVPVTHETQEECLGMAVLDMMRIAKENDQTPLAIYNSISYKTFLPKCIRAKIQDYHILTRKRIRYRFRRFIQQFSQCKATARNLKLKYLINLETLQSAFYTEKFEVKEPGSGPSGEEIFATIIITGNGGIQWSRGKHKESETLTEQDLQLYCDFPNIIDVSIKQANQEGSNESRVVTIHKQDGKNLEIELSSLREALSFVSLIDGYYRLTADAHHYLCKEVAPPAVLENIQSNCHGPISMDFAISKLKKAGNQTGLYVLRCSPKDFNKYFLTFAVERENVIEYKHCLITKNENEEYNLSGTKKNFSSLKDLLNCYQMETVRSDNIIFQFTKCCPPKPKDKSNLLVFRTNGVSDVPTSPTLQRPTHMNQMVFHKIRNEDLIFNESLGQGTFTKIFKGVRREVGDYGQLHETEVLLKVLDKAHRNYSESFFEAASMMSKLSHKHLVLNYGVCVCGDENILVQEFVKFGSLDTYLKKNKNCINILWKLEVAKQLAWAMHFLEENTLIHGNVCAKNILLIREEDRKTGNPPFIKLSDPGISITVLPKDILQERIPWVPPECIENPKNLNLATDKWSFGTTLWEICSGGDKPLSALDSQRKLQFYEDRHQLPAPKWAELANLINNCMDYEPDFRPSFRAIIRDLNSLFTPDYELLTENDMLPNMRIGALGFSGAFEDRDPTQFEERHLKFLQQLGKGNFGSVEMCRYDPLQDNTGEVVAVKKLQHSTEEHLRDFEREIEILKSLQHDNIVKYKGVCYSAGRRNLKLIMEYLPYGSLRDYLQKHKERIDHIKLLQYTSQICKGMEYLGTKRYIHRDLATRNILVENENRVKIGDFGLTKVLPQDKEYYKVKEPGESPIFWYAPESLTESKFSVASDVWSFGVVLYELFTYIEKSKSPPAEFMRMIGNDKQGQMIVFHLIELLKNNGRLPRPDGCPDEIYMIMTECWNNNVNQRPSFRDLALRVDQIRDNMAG

On to `CC1CCNC(=O)c2ccc(c([N+](=O)[O-])c2)-c2ccnc(n2)Nc2ccc(OCC3COC3)c(c2)COC1` (centres unmarked) [Example 174, 8-methyl-1^2-nitro-4^4-(oxetan-3-yl-methoxy)-6-oxa-3-diaza-2(4,2)-py-rimidina-1(1,4),4(1,3)-dibenzena-cyclododecaphan-12-one], for which the IC50 is 1000 to 10000 nM at JAK1, 1000 to 10000 nM on JAK3, more than 10000 nM at TYK2 and 1000 to 10000 nM against JAK2.
Regarding `CC1CCNC(=O)c2ccc(c(N)c2)-c2ccnc(n2)Nc2ccc(OCC3COC3)c(c2)COC1` (centres unmarked) [Example 175], the IC50 at JAK1 fell in the range of 1000 to 10000 nM; at JAK3, 11 to 100 nM; on TYK2, 1000 to 10000 nM; against JAK2, 101 to 1000 nM.
In the case of `CC1(C)CCNC(=O)c2ccc(c(N)c2)-c2ccnc(n2)Nc2ccc(OC3CC3)c(c2)COC1` [Example 176, 1^2-amino-4^4-cyclopropoxy-8,8-di-methyl-6-oxa-3,11-diaza-2(4,2)-py-rimidina-1(1,4),4(1,3)-dibenzena-cyclododecaphan-12-one], the IC50 was more than 10000 nM on JAK1, 1000 to 10000 nM on JAK3, more than 10000 nM on TYK2 and more than 10000 nM against JAK2.
For `COc1ccc(F)cc1COc1ccc2cc1COCCCCNC(=O)c1ccc(c(N)c1)-c1ccnc(n1)N2` [Example 177, 1^2-amino-4^4-((5-fluoro-2-methoxy-benzyl)oxy)-6-oxa-3,11-diaza-2(4,2)-pyrimidina-1(1,4),4(1,3)-dibenz-enacyclododecaphan-12-one], the IC50 is 1000 to 10000 nM on JAK1, 101 to 1000 nM at JAK3, more than 10000 nM at TYK2 and 1000 to 10000 nM against JAK2.
Consider `CC1CCOCc2cc(ccc2OC(C)C)Nc2nccc(n2)-c2ccc(cc2N)C(=O)NC1` (centres unmarked) [Example 178, 1^2-amino-4^4-isopropoxy-9-methyl-6-oxa-3,11-diaza-2(4,2)-pyrimidin-a-1(1,4)4(1,3)-dibenzenacyclododeca-phan-12-one], for which the IC50 on JAK1 is 101 to 1000 nM; on JAK3, less than 10 nM; on TYK2, 101 to 1000 nM; on JAK2 it was 11 to 100 nM.
For `CN(C)C(=O)C(C)(C)Oc1ccc2cc1COCCCCNC(=O)c1ccc(c(N)c1)-c1ccnc(n1)N2` [Example 179, 2-((1^2-amino-12-oxo-6-oxa-3,11-di-aza-2(4,2)-pyrimidina-1(1,4),4(1,3)-dibenzenacyclododecaphan-4^4-yl)oxy)-N,N-trimethylpropoiona-mide], the IC50 on JAK1 was 1000 to 10000 nM; at JAK3, 101 to 1000 nM; on TYK2, more than 10000 nM; against JAK2 it was 1000 to 10000 nM.
In the case of `C[C@H]1CCOCc2cc(ccc2OC2CC2)Nc2nccc(n2)-c2ccc(cc2N)C(=O)NC1` [Example 180, (S)-1^2-amino-4^4-cyclopropoxy-9-methyl-6-oxa-3,11-diaza-2(4,2)-py-rimidina-1(1,4),4(1,3)-dibenzena-cyclododecaphan-12-one], the IC50 lay in the range of 1000 to 10000 nM at JAK1, 11 to 100 nM at JAK3, 1000 to 10000 nM at TYK2 and 101 to 1000 nM against JAK2.
As for `C[C@@H]1CCOCc2cc(ccc2OC2CC2)Nc2nccc(n2)-c2ccc(cc2N)C(=O)NC1` [Example 181, (R)-1^2-amino-4^4-cyclopropxy-9-methyl-6-ox-3,11-diaza-2 (4,2)-pyrimidina-1(1,4),4(1,3)-di-benzenacyclododecaphan-12-one], the IC50 is 101 to 1000 nM at JAK1, less than 10 nM at JAK3, 101 to 1000 nM on TYK2 and 11 to 100 nM on JAK2.
On to `COc1cccc(F)c1COc1ccc2cc1COCCC(C)CNC(=O)c1ccc(c(N)c1)-c1ccnc(n1)N2` (centres unmarked) [Example 182, 1^2-amino-4^4-((2-fluoro-6-methoxy-benzyl)oxy)-9-methyl-6-oxa-3,11-diaza-2(4,2)-pyrimidina-1(1,4),4(1,3)-dibenzenacyclododecaphan-12-one], for which the IC50 was 1000 to 10000 nM at JAK1, less than 10 nM on JAK3, 1000 to 10000 nM at TYK2 and 101 to 1000 nM against JAK2.
On to `COc1cc(F)cc(F)c1COc1ccc2cc1COCCCCNC(=O)c1ccc(c(N)c1)-c1ccnc(n1)N2` [Example 183, 1^2-amino-4^4-((2,4-difluoro-6-meth-oxybenzyl)oxy)-6-oxa-3,11-diaza-2(4,2)-pyrimidina-1(1,4),4(1,3)-di-benzenacyclododecaphan-12-one], for which the IC50 is 1000 to 10000 nM on JAK1, less than 10 nM on JAK3, 1000 to 10000 nM on TYK2 and 101 to 1000 nM at JAK2.
For `CC1CCOCc2cc(ccc2OC2CCCC2)Nc2nccc(n2)-c2ccc(cc2N)C(=O)NC1` (centres unmarked) [Example 184, 1^2-amino-4^4-(cyclopentoxy)-9-meth-yl-6-oxa-3,11-diaza-2(4,2)-pyrimi-dina-1(1,4),4(1,3)-dibenzenacyclo-dodecaphan-12-one], the IC50 at JAK1 was 1000 to 10000 nM; at JAK3, less than 10 nM; at TYK2, 1000 to 10000 nM; against JAK2 it was 101 to 1000 nM.
Take `C[C@@H]1CCOCc2cc(ccc2OC2CCCC2)Nc2nccc(n2)-c2ccc(cc2N)C(=O)NC1` [Example 185, (R)-1-amino-4^4-(cyclopentoxy)-9-methyl-6-oxa-3,11-diaza-2(4,2)-py-rimidina-1(1,4),4(1,3)-dibenzena-cyclododecaphan-12-one]: the IC50 on JAK1 lay within 1000 to 10000 nM; on JAK3 it was 11 to 100 nM; on TYK2 it was 1000 to 10000 nM; against JAK2, 101 to 1000 nM.
For `COc1cccc(F)c1COc1ccc2cc1COCC[C@@H](C)CNC(=O)c1ccc(c(N)c1)-c1ccnc(n1)N2` [Example 186, (R)-1^2-amino-4^4-((2-fluoro-6-meth-oxybenzyl)oxy)-9-methyl-6-oxa-3,11-diaza-2(4,2)-pyrimidina-1(1,4),4(1,3)-dibenzenacyclododecaphan-12-one], the IC50 at JAK1 was 1000 to 10000 nM; on JAK3, less than 10 nM; at TYK2, 1000 to 10000 nM; at JAK2 it was 101 to 1000 nM.
For `CC(C)Oc1ccc2cc1COCC[C@@H](C)CNC(=O)c1ccc(c(N)c1)-c1ccnc(n1)N2` [Example 187, (R)-1^2-amino-4^4-isopropoxy-9-meth-yl-6-oxa-3,11-diaza-2(4,2)-pyri-midina-1(1,4),4(1,3)-dibenzenacyclo-dodecaphan-12-one], the IC50 on JAK1 is 101 to 1000 nM; on JAK3, 11 to 100 nM; on TYK2 it was 101 to 1000 nM; on JAK2 it was 11 to 100 nM.
As for `COc1cc(F)cc(F)c1COc1ccc2cc1COCC[C@@H](C)CNC(=O)c1ccc(c(N)c1)-c1ccnc(n1)N2` [Example 188, (R)-1^2-amino-4^4-((2,4-difluoro-6-methoxybenzyl)oxy)-9-methyl-6-o-xa-3,11-diaza-2(4,2)-pyrimidina-1(1,4),4(1,3)-dibenzenacyclo-dodecaphan-12-one], the IC50 at JAK1 lay within 1000 to 10000 nM; on JAK3, 11 to 100 nM; at TYK2 it was 1000 to 10000 nM; against JAK2, 101 to 1000 nM.
For the molecule `CC(C)Oc1ccc2cc1COCC[C@H](C)CNC(=O)c1ccc(c(N)c1)-c1ccnc(n1)N2` [Example 189, (S)-1^2-amino-4^4-isopropoxy-9-meth-yl-6-oxa-3,11-diaza-2(4,2)-pyrimi-dina-1(1,4),4(1,3)-dibenzenacyclo-dodecaphan-12-one], the IC50 on JAK1 was 101 to 1000 nM; at JAK3, 11 to 100 nM; at TYK2 it was more than 10000 nM; on JAK2, 101 to 1000 nM.
For the molecule `C[C@H]1CCOCc2cc(ccc2OC2CCCC2)Nc2nccc(n2)-c2ccc(cc2N)C(=O)NC1` [Example 190], the IC50 at JAK1 is 1000 to 10000 nM; on JAK3, 11 to 100 nM; on TYK2, 1000 to 10000 nM; against JAK2, 101 to 1000 nM.
